Laboratory results from patent US20160296438A1, “PROTECTIVE ACTION OF LUTEIN AGAINST BLUE LIGHT ON HUMAN SKIN CELL LINES” (Kemin Industries, Inc., priority 2015, published 2016).
Entries after “also recorded” stand apart in the source; their conditions may differ.

Legend:
[1] = test system: human epidermal keratinocytes (HEK) cells; experiment: Intracellular reactive oxygen species (ROS) assay (DCFH-DA) under blue light; type: cell-based; details: lutein at 50, 100 and 200 ppm, blue LED 476 nm, 9 hours, FIG. 5
Procedure: (§1) Reactive Oxygen Species (ROS) assay. ROS activity was measured using Oxiselect™ intracellular ROS assay kit (Cell BioLabs, San Diego, Calif., catalogue number STA 342, lot #59342025). The cells were seeded into 96-well microplates at a density of 100,000 cells/mL (200 μL). Both the cell lines were treated with cell permeable fluorogenic probe 2′, 7′-dichlorodihydrofluorescin diacetate (DCFH-DA). Cells were washed with D-PBS for couple of times and treated with lutein at different concentrations and exposed to blue LED lights (476 nm) for 9 hours (Cells that were not treated with lutein will serve as blue light control). Cells treated with pure DMSO serves as a control for DMSO effect in presence and absence of blue light. […] After 5 minutes incubation, 150 μL of this medium was transferred to a black wall 96-well plate and fluorescence was measured. […] Intracellular reactive oxygen species (ROS) activity and the oxidative stress was measured using Oxiselect™ intracellular ROS assay kit which can measure hydroxyl, peroxyl and other free radical in the cells. […] DCFH will be rapidly oxidized to fluorescent […] (DCF-green fluorescence) in presence of reactive oxygen species. The fluorescence intensity is proportional to the ROS levels within the cell cytosol. […]

[2] = test system: human dermal fibroblasts (HDF) cells; experiment: as above; type: cell-based; details: lutein at 50, 100 and 200 ppm, blue LED 476 nm, 9 hours, FIG. 6
Procedure: as §1

[3] = Solubility of lutein in cell culture media and DMSO; type: physicochemical
Procedure: FloraGLO™ Lutein (production number M080033, lot number 1405102477, manufactured date Jun. 04, 2014) was solubilized in sterile dimethyl sulfoxide (DMSO) [ATCC, lot #61908420] with intermittent shaking for at least 6 hours to get a stock of 2 mg/mL solution. From the stock; 2.5, 5 and 10 μl of the lutein solution was added to wells containing 100 μl media to get a final lutein concentration of 50, 100 and 200 ppm in corresponding wells. Hydrogen peroxide (H2O2) [Sigma, lot #WKBS8306V] solution at 1 mM was served as a positive control in all the studies. Pure DMSO at 2.5, 5 and 10 μl was added to few wells to have the DMSO control.
FloraGLO™ Lutein was solubilized in DMSO and applied to cell cultures. […] In our earlier attempts for cell viability assays with various detection mechanisms, this high concentrations of DMSO might be interacting with cell culture membranes and causing a reduction in cell proliferation and decrease in cell viability compared to controls.

[4] = test system: human epidermal keratinocytes (HEK) cells; experiment: Blue light shielding study with lutein, cell viability/proliferation by MTS assay; type: cell-based; details: lutein solution in DMSO at 50, 100 and 200 ppm as shield plate on top, blue LED 476 nm, 9 hours, p<0.05, FIG. 2
Procedure: (§2) Cell culture studies. All the cell culture studies were performed using HEK cells [HEK001 (ATCC® CRL-2404™) lot #61331463] continuous cell lines and Human Skin Fibroblast (HDF) [CCD1093Sk (ATCC® CRL2115™) lot #3296816] cell lines [ATCC, Manassas, Va.].
(§3) The growth medium used for HEK cells was prepared according to ATCC guidelines. Growth media consisting of keratinocyte serum free medium (GIBCO-BRL 17005042, lot #1638561) with 5 ng/mL human recombinant epidermal growth factor (EGF) (ATCC, lot # 1584416) and 2 mM L-glutamine (ATCC, lot #62195752) (without bovine pituitary extract and serum) and supplemented with penicillin (10000 units) and streptomycin (10 mg/mL) solution (Gibco, lot #1469707). The growth medium used for HDF cells consisting of eagle's Minimum Essential Medium (EMEM) (ATCC-302003, lot #62028896) with 10% FBS and supplemented with penicillin (10000 units) and streptomycin (10 mg/mL) solution. Cells were grown in cell culture flasks (75 cm^2) [Fisher Scientific, catalog number 10-126-37] to approximately 80% confluence in 5% CO2 environment incubator (NuAire, MN) maintained at 37° C. Confluent cells were passed into subsequent cultures by trypsinization following neutralization and centrifugation. […]
(§4) MTS assay. […] After incubation the absorbance at 490 nm was recorded using microplate Reader (SpectraMax® Me5, Molecular Devices, LLC. Sunnyvale, Calif.). […]

[5] = test system: human dermal fibroblasts (HDF) cells; experiment: as above; type: cell-based; details: lutein solution in DMSO at 50, 100 and 200 ppm as shield plate on top, blue LED 476 nm, 9 hours, p<0.05, FIG. 3
Procedure: as §2, §3, §4

solubility in DMSO ([3]; DMSO): limited solubility
solubility in cell culture compatible media ([3]; cell culture compatible media): does not dissolve
SMILES: CC1=C[C@H](O)CC(C)(C)[C@H]1/C=C/C(C)=C/C=C/C(C)=C/C=C/C=C(C)/C=C/C=C(C)/C=C/C1=C(C)C[C@@H](O)CC1(C)C [lutein]
fluorescence signal (DCF, generation of ROS) on blue light exposure [1]: low and prevent the generation of reactive oxygen species
fluorescence signal (DCF, generation of ROS) on blue light exposure [2]: low and prevent the generation of reactive oxygen species
cell proliferation (% cell viability) compared to blue light control [4]: significantly improved; also recorded: shielded the blue light effectively
cell proliferation (% cell viability) compared to blue light control [5]: significantly improved; also recorded: shielded the blue light effectively
